The experiment has as its system M. tuberculosis H37Rv growth inhibition. Briefly: Confirmatory growth inhibition assay against Mycobacterium tuberculosis H37Rv, potency (AID 1949).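 Note: bacteria grown 7 days with compound before Alamar blue readout.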

In brackets after ≈: the same amount, converted by molar mass. Inconclusive results are not listed. Activity calls are given as the source filed them. The rule behind the calls is not given here.

Regarding `Cc1ccccc1NC(=O)c1ccccc1NC(=S)NC(=O)c1cccnc1`, the IC50 is 1.3 µg/mL (≈ 3.33 µM). Under `CCOc1ccc(Nc2nc(-c3ccccn3)cs2)cc1` stands less than 0.1 µg/mL; under `CCc1cc2c(=O)c(-c3ccc4c(c3)OCCCO4)coc2cc1OC(C)C(=O)OC` (centres undefined), 39.9 µg/mL (≈ 94.1 µM); under `FC(F)(F)c1nnc2n1Nc1nc3ccccc3nc1S2`, 4.52 µg/mL (≈ 14.6 µM).

As for `CCOC(=O)c1ccc(NC(=O)/C=C/c2ccc([N+](=O)[O-])s2)cc1`, the IC50 is 0.28 µg/mL (≈ 0.808 µM). Under `CCOC(=O)COc1ccc(C(=O)Nc2ccc(F)cc2)cc1` stands less than 0.1 µg/mL.

Take `CN(C)c1ccc(NC(=O)c2ccncc2)cc1`: the concentration for half-maximal inhibition (IC50) is 2.89 µg/mL (≈ 12 µM). As to `Cn1nc([N+](=O)[O-])nc1Sc1ncnn1-c1ccccc1`, the IC50 was 2.98 µg/mL (≈ 9.83 µM). Turning to `COC(=O)COc1ccc2c(=O)c(Oc3ccccc3F)c(C)oc2c1C`, the half-inhibitory concentration (IC50) is 6.55 µg/mL (≈ 17.6 µM).

Regarding `C/C(Cl)=C/Cc1c(C)[nH]c2ccccc2c1=O`, the IC50 is 16.6 µg/mL (≈ 67.2 µM). Under `CCN1C(=O)c2cccc3cc([N+](=O)[O-])cc(c23)C1=O` stands less than 0.1 µg/mL. Consider `Oc1ccccc1CNCCC12CC3CC(CC(C3)C1)C2`, for which the IC50 is > 50 µg/mL (inactive). `CCc1c(C)c2ccc(OCC(=O)OC)c(C)c2oc1=O`: the IC50 was 0.54 µg/mL (≈ 1.86 µM). With `CN1CCN(c2ccc(NC(=O)c3cccc(I)c3)cc2)CC1` the figure was > 50 µg/mL (inactive); with `COc1ccc(C(=S)N2CC(C)OC(C)C2)c(OC)c1` (centres undefined), > 50 µg/mL (inactive); with `Clc1ccc2[nH]c3c(c2c1)CCc1cn[nH]c1-3`, > 50 µg/mL (inactive). Under `COc1cc(Br)cc2cc(C(=O)Nc3ccccc3O)c(=O)oc12` stands > 50 µg/mL (inactive). With `Clc1cc(Br)ccc1OCCCn1ccnc1` the figure was 15 µg/mL (≈ 47.4 µM).

On to `CCC(C)Oc1ccc(C(=O)NC(=S)Nc2ccc(N3CCOCC3)cc2)cc1` (centres undefined), for which the IC50 was 1.22 µg/mL (≈ 2.95 µM).

In the case of `Cc1ccc(OCC(=O)c2ccc(Cl)cc2)cc1C`, the IC50 was 17.6 µg/mL (≈ 64.1 µM). On to `O=[N+]([O-])c1cccc(NC(=S)Nc2ccc(Cl)c(Cl)c2)c1`, for which the IC50 is 0.3 µg/mL (≈ 0.877 µM). With `COC(=O)COc1ccc2c(=O)c(-c3ccccc3Cl)coc2c1` the figure was 0.4 µg/mL (≈ 1.16 µM).

In the case of `COc1cc(/C=C/c2ccc3cccc(O)c3n2)ccc1O`, the concentration for half-maximal inhibition (IC50) is 0.27 µg/mL (≈ 0.92 µM).

On to `Cc1ccc(-c2nnc(SC3=CS(=O)(=O)c4ccccc43)o2)cc1`, for which the IC50 was > 50 µg/mL (inactive).

Turning to `N#Cc1ccc(Sc2nc3ccccc3o2)c([N+](=O)[O-])c1`, the IC50 was > 50 µg/mL (inactive). Under `COC(=O)c1c(C)oc2ccc(OC(=O)c3cccc([N+](=O)[O-])c3)cc12` stands 3.65 µg/mL (≈ 10.3 µM); under `O=C(c1ccccc1)c1ccc(OCC(O)Cn2cnc3ccccc32)cc1` (centres undefined), 1.51 µg/mL (≈ 4.05 µM); under `OC(CN1CCN(C(c2ccccc2)c2ccccc2)CC1)Cn1c2ccccc2c2ccccc21` (centres undefined), 10.7 µg/mL (≈ 22.5 µM).

With `Cc1ccc(-c2nc(C#N)c(NCCCn3ccnc3)o2)cc1`, the IC50 was > 50 µg/mL (inactive). `Cc1c(Cl)cccc1NC(=O)c1ccc(OC(C)C(=O)OC2CCCCC2)cc1` (centres undefined): the IC50 is less than 0.1 µg/mL. With `O=C(Nc1ccc(N2CCN(Cc3ccccc3F)CC2)cc1)c1ccc([N+](=O)[O-])o1` the figure was 0.28 µg/mL (≈ 0.66 µM); with `S=C(NCCc1ccccc1)Nc1ccc(Nc2ccccc2)cc1`, 3.85 µg/mL (≈ 11.1 µM); with `CCCCC(=O)NC(=S)NNC(=O)c1ccc(C)c(Br)c1`, 2.79 µg/mL (≈ 7.49 µM). Under `O=C1c2cccc3cccc(c23)C(=O)N1c1ccc2[nH]c(=O)[nH]c2c1` stands 33 µg/mL (≈ 100 µM); under `COC(=O)c1cccc(NC(=O)COc2ccc(C(C)(C)C)cc2)c1`, > 50 µg/mL (inactive). With `O=C(CCN1CCc2ccccc2CC1)c1ccc2c(c1)OCCO2` the figure was 8.36 µg/mL (≈ 24.8 µM); with `Cc1ccc(SCC(=O)Nc2cccc(C)c2)cc1`, 10.9 µg/mL (≈ 40.2 µM); with `CC(C)(C)c1ccc(-c2nn3c(Cc4ccccc4)nnc3s2)cc1`, > 50 µg/mL (inactive). `C/C(=N/N=C1\NC(=O)C(Cc2ccc(Cl)cc2)S1)c1ccc(F)cc1` (centres undefined): the IC50 is 19 µg/mL (≈ 50.6 µM).

Source of the values: PubChem BioAssay AID1949 (Southern Research Institute, 2009).
